Laboratory results reported in US11759462B2, “Spirocyclic compounds as tryptophan hydroxylase inhibitors” (priority 2013, dated 2023).
pIC50: −log10 of the molar value.

Each compound was assayed against T1, Recombinant human TPH1 (MBP tagged) (Homo sapiens, UniProt P17752) (assay: TPH1 in vitro inhibition assay (kinetic fluorescence)). Conditions: TPH1 Range (TPH1 inhibition IC50).
T1 construct: cloning full length human TPH1 cDNA in to a bacterial pMAL-c5E expression vector; made in house; host or cells: E. coli BL21 (DE3)
T1 sequence (P17752 1-444): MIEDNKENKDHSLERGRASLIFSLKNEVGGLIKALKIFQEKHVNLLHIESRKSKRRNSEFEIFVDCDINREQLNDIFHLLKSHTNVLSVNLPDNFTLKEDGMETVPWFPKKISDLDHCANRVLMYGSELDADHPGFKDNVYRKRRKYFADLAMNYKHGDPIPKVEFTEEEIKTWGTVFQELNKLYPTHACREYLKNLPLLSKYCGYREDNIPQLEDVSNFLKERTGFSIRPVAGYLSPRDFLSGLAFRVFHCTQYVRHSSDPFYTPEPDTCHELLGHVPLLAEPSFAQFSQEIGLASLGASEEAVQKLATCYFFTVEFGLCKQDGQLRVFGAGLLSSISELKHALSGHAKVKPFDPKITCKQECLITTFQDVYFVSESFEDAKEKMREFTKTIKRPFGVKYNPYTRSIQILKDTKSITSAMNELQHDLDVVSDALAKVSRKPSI
Type: biochemical
How it was run: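 Final mix: 15 nM MBP-TPH1, 30 μM Trp, 36 μM 6-methyltetrahydropterin, 25 μM ferrous ammonium sulfate, 50 mM MES pH 7.1, 1% DMSO, room temperature.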

| SMILES | pIC50 |
| --- | --- |
| CS(=O)(=O)Nc1cccc(-c2cc(Cl)ccc2[C@@H](Oc2cc(N3CCC4(CC3)CN[C@H](C(=O)O)C4)nc(N)n2)C(F)(F)F)c1 [Example 34n, (S)-8-(2-amino-6-((R)-1-(5-chloro-3′-(methylsulfonamido)-[1,1′-biphenyl]-2-yl)-2,2,2-trifluoroethoxy)pyrimidin-4-yl)-2,8-diazaspiro[4.5]decane-3-carboxylic acid] | 6.52 to 7.30 |
| Nc1nc(O[C@H](c2ccc(Cl)cc2-c2cccc(N3CCCC3=O)c2)C(F)(F)F)cc(N2CCC3(CC2)CN[C@H](C(=O)O)C3)n1 [Example 34o, (S)-8-(2-amino-6-((R)-1-(5-chloro-3′-(2-oxopyrrolidin-1-yl)-[1,1′-biphenyl]-2-yl)-2,2,2-trifluoroethoxy)pyrimidin-4-yl)-2,8-diazaspiro[4.5]decane-3-carboxylic acid] | 6.52 to 7.30 |
| Nc1nc(O[C@H](c2ccc(Cl)cc2-c2cccc(C(F)(F)F)c2)C(F)(F)F)cc(N2CCC3(CC2)CN[C@H](C(=O)O)C3)n1 [Example 34q, (S)-8-(2-amino-6-((R)-1-(5-chloro-3′-(trifluoromethyl)-[1,1′-biphenyl]-2-yl)-2,2,2-trifluoroethoxy)pyrimidin-4-yl)-2,8-diazaspiro[4.5]decane-3-carboxylic acid] | > 7.30 |

The next lines start with the values.

| pIC50 | SMILES |
| --- | --- |
| > 7.30 | N#Cc1cccc(-c2cc(Cl)ccc2[C@@H](Oc2cc(N3CCC4(CC3)CN[C@H](C(=O)O)C4)nc(N)n2)C(F)(F)F)c1 [Example 34x, (S)-8-(2-amino-6-((R)-1-(5-chloro-3′-cyano-[1,1′-biphenyl]-2-yl)-2,2,2-trifluoroethoxy)pyrimidin-4-yl)-2,8-diazaspiro[4.5]decane-3-carboxylic acid] |
| > 7.30 | COc1cccc(-c2cc(Cl)ccc2[C@@H](Oc2cc(N3CCC4(CC3)CN[C@H](C(=O)O)C4)nc(N)n2)C(F)(F)F)c1 [Example 34y, (S)-8-(2-amino-6-((R)-1-(5-chloro-3′-methoxy-[1,1′-biphenyl]-2-yl)-2,2,2-trifluoroethoxy)pyrimidin-4-yl)-2,8-diazaspiro[4.5]decane-3-carboxylic acid] |

Same assay, conditions: read-out: TPH1 Range (TPH1 inhibition IC50)

| SMILES | pIC50 |
| --- | --- |
| CN1CCN(c2cccc(-c3cc(Cl)ccc3[C@@H](Oc3cc(N4CCC5(CC4)CN[C@H](C(=O)O)C5)nc(N)n3)C(F)(F)F)c2)C1=O [Example 34p, (S)-8-(2-amino-6-((R)-1-(5-chloro-3′-(3-methyl-2-oxoimidazolidin-1-yl)-[1,1′-biphenyl]-2-yl)-2,2,2-trifluoroethoxy)pyrimidin-4-yl)-2,8-diazaspiro[4.5]decane-3-carboxylic acid] | 6.52 to 7.30 |
| Cn1ccc(-c2cc(Cl)ccc2[C@@H](Oc2cc(N3CCC4(CC3)CN[C@H](C(=O)O)C4)nc(N)n2)C(F)(F)F)n1 [Example 34t, (S)-8-(2-amino-6-((R)-1-(4-chloro-2-(1-methyl-1H-pyrazol-3-yl)phenyl)-2,2,2-trifluoroethoxy)pyrimidin-4-yl)-2,8-diazaspiro[4.5]decane-3-carboxylic acid] | 6.52 to 7.30 |

Further lines, results first:

| pIC50 | SMILES |
| --- | --- |
| 6.52 to 7.30 | Nc1nc(O[C@H](c2ccc(Cl)cc2-c2cccc(CO)c2)C(F)(F)F)cc(N2CCC3(CC2)CN[C@H](C(=O)O)C3)n1 [Example 34m, (S)-8-(2-amino-6-((R)-1-(5-chloro-3′-(hydroxymethyl)-[1,1′-biphenyl]-2-yl)-2,2,2-trifluoroethoxy)pyrimidin-4-yl)-2,8-diazaspiro[4.5]decane-3-carboxylic acid] |
| > 7.30 | NCc1cccc(-c2cc(Cl)ccc2[C@@H](Oc2cc(N3CCC4(CC3)CN[C@H](C(=O)O)C4)nc(N)n2)C(F)(F)F)c1 [Example 34z, (S)-8-(2-amino-6-((R)-1-(3′-(aminomethyl)-5-chloro-[1,1′-biphenyl]-2-yl)-2,2,2-trifluoroethoxy)pyrimidin-4-yl)-2,8-diazaspiro[4.5]decane-3-carboxylic acid] |
